Results reported in ChEMBL document CHEMBL1201862, “PubChem BioAssay data set” (2004).
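96-well plates; 48 h exposure; 5 concentrations. Endpoints by linear interpolation between flanking doses. Not reached: highest tested concentration assigned. Abbreviation: GI50, concentration required for 50% inhibition of growth.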 Calls of active or inactive are those of the source. Cut-off read from the data, not from the text of the source: active = GI50 up to about 1.1 µM and inactive = higher.

Assays:
Assay in all cases: DTP human tumour cell line panel, 48 h
RPMI-8226 = system: RPMI-8226
HL-60 = system: HL-60
M14 = system: M14
COLO 205 = system: COLO 205
HT-29 = system: HT-29
SF-539 = system: SF-539
U-251 = system: U-251
PC-3 = system: PC-3
NCI-H522 = system: NCI-H522
HCC 2998 = system: HCC 2998
Malme-3M = system: Malme-3M
TK-10 = system: TK-10
SNB-75 = system: SNB-75
NCI/ADR-RES = system: NCI/ADR-RES
SF-295 = system: SF-295
OVCAR-4 = system: OVCAR-4
NCI-H226 = system: NCI-H226
CAKI-1 = system: CAKI-1
RXF 393 = system: RXF 393

Measured: GI50

CC(=O)Nc1ccc2nc(-c3cccc(Cl)c3)cc(O)c2c1
inactive: RPMI-8226 66.1 µM | HL-60 8.34 µM | M14 11.1 µM | COLO 205 2.99 µM | HT-29 11.2 µM | SF-539 4.71 µM | U-251 3.65 µM | PC-3 4.72 µM | NCI-H522 3.1 µM | HCC 2998 8.38 µM | Malme-3M 3.18 µM | TK-10 > 100 µM | SNB-75 4.4 µM | NCI/ADR-RES > 100 µM

O=C(CSc1nnc(-c2ccc(/N=C\c3ccc(Cl)cc3)cc2)o1)Nc1ccc(Cl)cc1Cl
inactive: RPMI-8226 32.4 µM | SF-295 27.2 µM | HL-60 33.9 µM | OVCAR-4 30.3 µM | NCI-H226 19.7 µM | M14 16.4 µM | CAKI-1 > 100 µM | COLO 205 30.7 µM | HT-29 25.8 µM | SF-539 22.2 µM | U-251 25.2 µM | NCI-H522 27 µM | HCC 2998 > 100 µM | Malme-3M 21.5 µM | TK-10 > 100 µM | SNB-75 22.7 µM | RXF 393 68.7 µM

COc1cc2c(cc1OC)C(Cc1cc(Br)c(OC)c(OC)c1)=[N+](C)CC2
inactive: RPMI-8226 43.2 µM | SF-295 30.5 µM | HL-60 36 µM | OVCAR-4 19.2 µM | NCI-H226 31.6 µM | M14 69.8 µM | CAKI-1 > 100 µM | COLO 205 40.6 µM | HT-29 33.2 µM | SF-539 > 100 µM | U-251 8.17 µM | NCI-H522 22.8 µM | HCC 2998 > 100 µM | Malme-3M > 100 µM | TK-10 59.6 µM | SNB-75 94.4 µM | RXF 393 69.7 µM

CCOC(=O)c1nc2ccc(C(F)(F)F)cc2nc1NCc1ccc(OC)c(OC)c1
inactive: RPMI-8226 86.1 µM | SF-295 47.6 µM | HL-60 22.8 µM | OVCAR-4 73.5 µM | NCI-H226 63.5 µM | M14 67.8 µM | CAKI-1 > 100 µM | COLO 205 35.8 µM | HT-29 32.1 µM | SF-539 > 100 µM | U-251 41.8 µM | PC-3 35.5 µM | NCI-H522 30.6 µM | Malme-3M 97.7 µM | TK-10 > 100 µM | SNB-75 21.9 µM | NCI/ADR-RES 37 µM | RXF 393 43.6 µM

N#Cc1ccccc1/C=N/O
inactive: RPMI-8226 > 42.2 µM | SF-295 > 100 µM | HL-60 > 44.4 µM | OVCAR-4 > 100 µM | NCI-H226 > 100 µM | M14 > 100 µM | CAKI-1 > 100 µM | COLO 205 > 49.7 µM | HT-29 > 75.3 µM | SF-539 > 100 µM | U-251 > 81.1 µM | NCI-H522 > 100 µM | HCC 2998 > 100 µM | Malme-3M > 100 µM | TK-10 > 100 µM | SNB-75 > 69.5 µM | RXF 393 > 100 µM

C/C(=N\Nc1ccccc1)c1sc(-c2nc(C)c(/C(C)=N/Nc3ccccc3)s2)nc1C
inactive: RPMI-8226 12.6 µM | SF-295 9.98 µM | HL-60 31.8 µM | OVCAR-4 21.2 µM | NCI-H226 40.4 µM | M14 7.71 µM | CAKI-1 > 58.2 µM | COLO 205 8.24 µM | HT-29 9.06 µM | SF-539 16.1 µM | U-251 37.1 µM | NCI-H522 18.1 µM | HCC 2998 7.93 µM | Malme-3M 16.1 µM | TK-10 80.9 µM | SNB-75 23.4 µM | RXF 393 22.8 µM

CCOC(=O)c1c(N)sc2c1C(C(=O)OCC)CCCC2 (stereo unspecified)
inactive: RPMI-8226 46.2 µM | HL-60 26.2 µM | NCI-H226 > 100 µM | M14 > 100 µM | COLO 205 85.7 µM | HT-29 > 100 µM | U-251 66.5 µM | PC-3 32.9 µM | HCC 2998 76.9 µM | Malme-3M > 100 µM | TK-10 > 100 µM | SNB-75 > 100 µM | RXF 393 17.3 µM

COC(=O)C1=C(C[S+]([O-])c2ccc([N+](=O)[O-])cc2[N+](=O)[O-])ON(C)C1c1ccccc1 (stereo unspecified)
inactive: RPMI-8226 13.4 µM | SF-295 46.8 µM | HL-60 7.66 µM | OVCAR-4 48.4 µM | NCI-H226 65.2 µM | M14 96.6 µM | CAKI-1 28 µM | COLO 205 24.2 µM | HT-29 20.2 µM | SF-539 21.9 µM | U-251 31.3 µM | NCI-H522 17.7 µM | HCC 2998 > 37.8 µM | Malme-3M > 84.5 µM | TK-10 > 48.9 µM | SNB-75 16.3 µM | RXF 393 > 42.2 µM

COC1=C[C@]2(CCC(=O)O2)[C@@H]2Cc3ccccc3[C@H](O)[C@@H]2C1=O
inactive: RPMI-8226 18.1 µM | SF-295 > 100 µM | HL-60 25.7 µM | OVCAR-4 43.2 µM | NCI-H226 86.5 µM | M14 > 100 µM | CAKI-1 47.6 µM | COLO 205 > 100 µM | HT-29 > 100 µM | U-251 27.7 µM | PC-3 31.2 µM | NCI-H522 21.7 µM | HCC 2998 > 100 µM | Malme-3M 24.5 µM | TK-10 > 100 µM | NCI/ADR-RES 97.9 µM
